# PubChem BioAssay (NCI)
#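 These data come from cells grown in 96-well plates and exposed to compound for 48 hours at five concentrations. At the GI50, growth is halved. At the TGI there is no net growth.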
# Tests used:
# Assay in all cases: inhibition of tumour cell growth, NCI panel, 48 h
# SNB-75 CNS = test system: SNB-75 CNS
# 786-0 renal = test system: 786-0 renal
# SK-MEL-5 melanoma = test system: SK-MEL-5 melanoma
# COLO 205 colon = test system: COLO 205 colon
# HT29 colon = test system: HT29 colon
# UACC-62 melanoma = test system: UACC-62 melanoma
# OVCAR-4 ovarian = test system: OVCAR-4 ovarian
# M14 melanoma = test system: M14 melanoma
# IGROV1 ovarian = test system: IGROV1 ovarian
# SW-620 colon = test system: SW-620 colon
# HS 578T breast = test system: HS 578T breast
# EKVX NSCLC = test system: EKVX NSCLC
# A549 NSCLC = test system: A549 NSCLC
# A498 renal = test system: A498 renal
# UO-31 renal = test system: UO-31 renal
# MCF7 breast = test system: MCF7 breast
# SK-MEL-2 melanoma = test system: SK-MEL-2 melanoma
# SF-539 CNS = test system: SF-539 CNS
# OVCAR-8 ovarian = test system: OVCAR-8 ovarian
# NCI-H23 lung = test system: NCI-H23 lung
# NCI-H226 lung = test system: NCI-H226 lung
# MDA-MB-231 breast = test system: MDA-MB-231 breast
# BT-549 breast = test system: BT-549 breast
# NCI-H460 lung = test system: NCI-H460 lung
# MALME-3M melanoma = test system: MALME-3M melanoma
# U251 CNS = test system: U251 CNS
# SNB-19 CNS = test system: SNB-19 CNS
# OVCAR-3 ovarian = test system: OVCAR-3 ovarian
# T-47D breast = test system: T-47D breast
# SN12C renal = test system: SN12C renal
# HOP-92 NSCLC = test system: HOP-92 NSCLC
# TK-10 renal = test system: TK-10 renal
# MOLT-4 leukemia = test system: MOLT-4 leukemia
# DU-145 prostate = test system: DU-145 prostate
# SF-295 CNS = test system: SF-295 CNS
# HCC-2998 colon = test system: HCC-2998 colon
# NCI/ADR-RES ovarian = test system: NCI/ADR-RES ovarian
# SF-268 CNS = test system: SF-268 CNS
# HOP-62 NSCLC = test system: HOP-62 NSCLC
# SK-MEL-28 melanoma = test system: SK-MEL-28 melanoma
# NCI-H522 lung = test system: NCI-H522 lung
# SR leukemia = test system: SR leukemia
# SK-OV-3 ovarian = test system: SK-OV-3 ovarian
# KM12 colon = test system: KM12 colon
# PC-3 prostate = test system: PC-3 prostate
# CAKI-1 renal = test system: CAKI-1 renal
# UACC-257 melanoma = test system: UACC-257 melanoma
# MDA-MB-435 = test system: MDA-MB-435
# ACHN renal = test system: ACHN renal
# K-562 leukemia = test system: K-562 leukemia
# HL-60(TB) leukemia = test system: HL-60(TB) leukemia
# CCRF-CEM leukemia = test system: CCRF-CEM leukemia
# HCT-15 colon = test system: HCT-15 colon
# LOX IMVI melanoma = test system: LOX IMVI melanoma
# RPMI-8226 leukemia = test system: RPMI-8226 leukemia
# OVCAR-5 ovarian = test system: OVCAR-5 ovarian
# MDA-MB-468 breast = test system: MDA-MB-468 breast
# HCT-116 colon = test system: HCT-116 colon
# RXF 393 renal = test system: RXF 393 renal
structure (smiles),measurement,setting,value
C=C1CCC2C3(C)COC(c4cc(F)cc(F)c4)OC3CCC2(C)C1C/C=C1/C(=O)OCC1O (stereo not drawn),GI50,SNB-75 CNS,1140 nM
same,TGI,SNB-75 CNS,2400 nM
same,GI50,786-0 renal,1730 nM
same,TGI,786-0 renal,3130 nM
same,GI50,SK-MEL-5 melanoma,1750 nM
same,TGI,SK-MEL-5 melanoma,3210 nM
same,GI50,COLO 205 colon,1860 nM
same,TGI,COLO 205 colon,3320 nM
same,GI50,HT29 colon,1790 nM
same,TGI,HT29 colon,3610 nM
same,GI50,UACC-62 melanoma,1650 nM
same,TGI,UACC-62 melanoma,3290 nM
same,GI50,OVCAR-4 ovarian,1850 nM
same,TGI,OVCAR-4 ovarian,4090 nM
same,GI50,M14 melanoma,1740 nM
same,TGI,M14 melanoma,3390 nM
same,GI50,IGROV1 ovarian,1810 nM
same,TGI,IGROV1 ovarian,3530 nM
same,GI50,SW-620 colon,1350 nM
same,TGI,SW-620 colon,2810 nM
same,GI50,HS 578T breast,2110 nM
same,TGI,HS 578T breast,5610 nM
same,GI50,EKVX NSCLC,2500 nM
same,TGI,EKVX NSCLC,6500 nM
same,GI50,A549 NSCLC,2550 nM
same,TGI,A549 NSCLC,8390 nM
same,GI50,A498 renal,3410 nM
same,TGI,A498 renal,15600 nM
same,GI50,UO-31 renal,1410 nM
same,TGI,UO-31 renal,2700 nM
same,GI50,MCF7 breast,1180 nM
same,TGI,MCF7 breast,2600 nM
same,GI50,SK-MEL-2 melanoma,1790 nM
same,TGI,SK-MEL-2 melanoma,3380 nM
same,GI50,SF-539 CNS,1660 nM
same,TGI,SF-539 CNS,3020 nM
same,GI50,OVCAR-8 ovarian,1770 nM
same,TGI,OVCAR-8 ovarian,4520 nM
same,GI50,NCI-H23 lung,1880 nM
same,TGI,NCI-H23 lung,3750 nM
same,GI50,NCI-H226 lung,1730 nM
same,TGI,NCI-H226 lung,3420 nM
same,GI50,MDA-MB-231 breast,1670 nM
same,TGI,MDA-MB-231 breast,3250 nM
same,GI50,BT-549 breast,1410 nM
same,TGI,BT-549 breast,2730 nM
same,GI50,NCI-H460 lung,1620 nM
same,TGI,NCI-H460 lung,3200 nM
same,GI50,MALME-3M melanoma,1690 nM
same,TGI,MALME-3M melanoma,3150 nM
same,GI50,U251 CNS,1580 nM
same,TGI,U251 CNS,3030 nM
same,GI50,SNB-19 CNS,1730 nM
same,TGI,SNB-19 CNS,3430 nM
same,GI50,OVCAR-3 ovarian,1620 nM
same,TGI,OVCAR-3 ovarian,3120 nM
same,GI50,T-47D breast,1430 nM
same,TGI,T-47D breast,3100 nM
same,GI50,SN12C renal,1520 nM
same,TGI,SN12C renal,2890 nM
same,GI50,HOP-92 NSCLC,1770 nM
same,TGI,HOP-92 NSCLC,3820 nM
same,GI50,TK-10 renal,1680 nM
same,TGI,TK-10 renal,3250 nM
same,GI50,MOLT-4 leukemia,2580 nM
same,TGI,MOLT-4 leukemia,7520 nM
same,GI50,DU-145 prostate,2210 nM
same,TGI,DU-145 prostate,5110 nM
same,GI50,SF-295 CNS,1560 nM
same,TGI,SF-295 CNS,2980 nM
same,GI50,HCC-2998 colon,1660 nM
same,TGI,HCC-2998 colon,3160 nM
same,GI50,NCI/ADR-RES ovarian,1820 nM
same,TGI,NCI/ADR-RES ovarian,3670 nM
same,GI50,SF-268 CNS,1840 nM
same,TGI,SF-268 CNS,3690 nM
same,GI50,HOP-62 NSCLC,1780 nM
same,TGI,HOP-62 NSCLC,3440 nM
same,GI50,SK-MEL-28 melanoma,1770 nM
same,TGI,SK-MEL-28 melanoma,3210 nM
same,GI50,NCI-H522 lung,1640 nM
same,TGI,NCI-H522 lung,3230 nM
same,GI50,SR leukemia,2080 nM
same,TGI,SR leukemia,5230 nM
same,GI50,SK-OV-3 ovarian,9790 nM
same,TGI,SK-OV-3 ovarian,22000 nM
same,GI50,KM12 colon,1900 nM
same,TGI,KM12 colon,3860 nM
same,GI50,PC-3 prostate,1750 nM
same,TGI,PC-3 prostate,3600 nM
same,GI50,CAKI-1 renal,1620 nM
same,TGI,CAKI-1 renal,3010 nM
same,GI50,UACC-257 melanoma,1730 nM
same,TGI,UACC-257 melanoma,3440 nM
same,GI50,MDA-MB-435,1550 nM
same,TGI,MDA-MB-435,3100 nM
same,GI50,ACHN renal,1700 nM
same,TGI,ACHN renal,3070 nM
same,GI50,K-562 leukemia,1980 nM
same,TGI,K-562 leukemia,6170 nM
same,GI50,HL-60(TB) leukemia,1350 nM
same,TGI,HL-60(TB) leukemia,3590 nM
same,GI50,CCRF-CEM leukemia,649 nM
same,TGI,CCRF-CEM leukemia,4190 nM
same,GI50,HCT-15 colon,1440 nM
same,TGI,HCT-15 colon,2980 nM
same,GI50,LOX IMVI melanoma,1480 nM
same,TGI,LOX IMVI melanoma,2790 nM
same,GI50,RPMI-8226 leukemia,2050 nM
same,TGI,RPMI-8226 leukemia,5450 nM
same,GI50,OVCAR-5 ovarian,1590 nM
same,TGI,OVCAR-5 ovarian,3210 nM
same,GI50,MDA-MB-468 breast,1730 nM
same,TGI,MDA-MB-468 breast,3160 nM
same,GI50,HCT-116 colon,1430 nM
same,TGI,HCT-116 colon,2930 nM
same,GI50,RXF 393 renal,1730 nM
same,TGI,RXF 393 renal,3230 nM
